In general, IC50 refers to the concentration needed to halve the response being measured.

Data on 16 compounds can be found in article PMC3635066 (Journal of medicinal chemistry, 2012).

Series [1] has as its target T1, recombinant CpIMPDH (Cryptosporidium parvum, UniProt Q8T6T2).
T1 sequence (Q8T6T2 1-400): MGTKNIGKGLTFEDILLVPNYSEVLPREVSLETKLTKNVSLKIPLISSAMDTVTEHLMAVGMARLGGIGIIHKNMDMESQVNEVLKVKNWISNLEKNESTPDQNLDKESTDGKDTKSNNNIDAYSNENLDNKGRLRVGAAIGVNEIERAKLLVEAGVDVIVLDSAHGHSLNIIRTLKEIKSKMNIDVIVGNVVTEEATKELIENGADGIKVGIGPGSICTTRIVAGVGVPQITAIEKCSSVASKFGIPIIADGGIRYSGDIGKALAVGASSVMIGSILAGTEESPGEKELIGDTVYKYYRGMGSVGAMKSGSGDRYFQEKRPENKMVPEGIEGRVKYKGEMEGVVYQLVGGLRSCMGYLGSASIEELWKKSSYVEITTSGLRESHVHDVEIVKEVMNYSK
Nature of the series: biochemical. Type of series: biochemical. The settings on record: for increase in potency: relative to compound 1.

The nature of series [2]: Mouse liver microsomal stability. The class given is in vitro ADME.

Consider `C=C(C)c1cccc(C(C)(C)NC(=O)Nc2ccc(Cl)cc2)c1` [Compound 5b, 1-(4-chlorophenyl)-3-(2-(3-(prop-1-en-2-yl)phenyl)propan-2-yl)urea], for which the increase in potency in series [1] is reported as 16 fold. For the compound `C=C(C)c1cccc(C(C)(C)NC(=O)Nc2ccc(Br)cc2)c1` [Compound 5c, 1-(4-Bromophenyl)-3-(2-(3-(prop-1-en-2-yl)phenyl)propan-2-yl)urea], the increase in potency in series [1] is given as 32 fold.

Regarding `C=C(C)c1cccc(C(C)(C)NC(=O)Nc2cccc(Cl)c2)c1` [Compound 5d, 1-(3-Chlorophenyl)-3-(2-(3-(prop-1-en-2-yl)phenyl)propan-2-yl)urea], in series [1] (relative to 5b), the loss of activity was 3 fold. Regarding `C=C(C)c1cccc(C(C)(C)NC(=O)Nc2ccccc2Cl)c1` [Compound 5e, 1-(2-Chlorophenyl)-3-(2-(3-(prop-1-en-2-yl)phenyl)propan-2-yl)urea], the “CpIMPDH inhibitory activity (in words)” value in series [1] is “completely inactive”. Same read-out and setting: next, `C=C(C)c1cccc(C(C)(C)NC(=O)Nc2ccc(C(C)(C)C)cc2)c1` [Compound 5g, 1-(4-(tert-Butyl)phenyl)-3-(2-(3-(prop-1-en-2-yl)phenyl)propan-2-yl)urea]: “lacking activity”. As to `CC(=O)c1cccc(C(C)(C)NC(=O)Nc2ccc(Cl)c(C(N)=O)c2)c1` [Compound 6c, 5-(3-(2-(3-acetylphenyl)propan-2-yl)ureido)-2-chlorobenzamide], the “mouse liver microsomal stability (in words)” value in series [2] is “very resistant to oxidative degradation in microsomes”. For `C/C(=N\O)c1cccc(C(C)(C)NC(=O)Nc2ccc(Cl)c(C(N)=O)c2)c1` [Compound 7c, (E) 2 chloro 5-(3-(2-(3-(1-(hydroxyimino)ethyl)phenyl)propan-2-yl)ureido)benzamide], in series [1], the concentration for half-maximal inhibition (IC50) is ≤ 1 nM. As for `CO/N=C(\C)c1cccc(C(C)(C)NC(=O)Nc2ccc(Cl)c(C(F)(F)F)c2)c1` [Compound 8a, (E)-1-(4-Chloro-3-(trifluoromethyl)phenyl)-3-(2-(3-(1-(methoxyimino)ethyl)phenyl)propan-2-yl)urea], the “mouse liver microsomal stability (in words)” value in series [2] is given as “less stable”. Same read-out and setting: the same measure for `C/C(=N\OCCN)c1cccc(C(C)(C)NC(=O)Nc2ccc(Cl)c([N+](=O)[O-])c2)c1` [Compound 9, (E)-1-(2-(3-(1-((2-aminoethoxy)imino)ethyl)phenyl)propan-2-yl)-3 (4-chloro-3-nitrophenyl)urea]: “excellent mouse liver microsomal stability”. For the compound `CC(O)c1cccc(C(C)(C)NC(=O)Nc2ccc(Cl)cc2)c1` (stereo not shown) [Compound 10, 1-(4-chlorophenyl)-3-(2-(3-(1-hydroxyethyl)phenyl)propan-2-yl)urea], the “CpIMPDH inhibitory activity (in words)” value in series [1] is recorded as “moderate activity”.

Regarding `CC(C)c1cccc(C(C)(C)NC(=O)Nc2ccc3ccccc3c2)c1` [Compound 11, 1-(2-(3-Isopropylphenyl)propan-2-yl)-3-(naphthalen-2-yl)urea], the “CpIMPDH inhibitory activity (in words)” value in series [1] was “complete loss of inhibitory activity”. Take `CC(=O)c1cccc(CNC(=O)Nc2ccc(Cl)cc2)c1` [Compound 23, 1-(3-Acetylbenzyl)-3-(4-chlorophenyl) urea]: the “CpIMPDH inhibitory activity (in words)” value in series [1] is “complete loss of activity”. For the compound `CC(=O)c1cccc(C(C)(C)OC(=O)Nc2ccc(Cl)cc2)c1` [Compound 28, 2-(3-Acetylphenyl) propan-2-yl (4-chlorophenyl)carbamate], in series [1] (relative to 6a), the reduction in activity was determined as 2 fold. Regarding `CC(C)(NC(=O)Nc1ccc(Cl)c(C(N)=O)c1)c1cccc(-c2ccccc2)c1` [Compound 36a, 5-(3-(2-([1, 1′-biphenyl]-3-yl)propan-2-yl)ureido)-2-chlorobenzamide], the “CpIMPDH inhibitory activity (in words)” value in series [1] is given as “retained potent activity”. In the case of `CC(C)(NC(=O)Nc1ccc(Cl)cc1)c1ccc(-c2ccccc2)cc1` [Compound 36b, 1-(2-([1,1′-Biphenyl]-4-yl)propan-2-yl)-3-(4-chlorophenyl)urea], the “CpIMPDH inhibitory activity (in words)” value in series [1] is “complete loss of inhibitory activity”. Same read-out and setting: next, `CC(C)(NC(=O)Nc1ccc2[nH]c(=O)[nH]c2c1)c1ccccc1` [Compound 38, 1-(2-Oxo-2,3-dihydro-1H-benzo[d]imidazol-5-yl)-3-(2-phenylpropan 2 yl)urea]: “complete loss of inhibitory activity”.
